The results in this text go back to patent publication US12291518B2, “Thyroid hormone receptor agonists and use thereof” (Eccogene Inc., priority 2020, dated 2025).

Molecules are shown by their SMILES.

One experiment addresses T1, THR beta-LBD (Homo sapiens, UniProt P10828).
T1 construct: THR beta-LBD (the final concentration is 0.5 nM) was added to the 384-well assay plate; purchased Invitrogen PV4686
T1 sequence (P10828 217-461 limits assumed): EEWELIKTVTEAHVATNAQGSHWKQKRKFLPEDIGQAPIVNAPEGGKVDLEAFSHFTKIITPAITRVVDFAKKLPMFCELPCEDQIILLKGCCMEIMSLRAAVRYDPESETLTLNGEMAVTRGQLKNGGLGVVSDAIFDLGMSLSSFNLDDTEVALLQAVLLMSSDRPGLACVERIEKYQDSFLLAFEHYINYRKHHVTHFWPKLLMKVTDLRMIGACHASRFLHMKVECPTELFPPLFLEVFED
Put plainly: THR-β Coactivator Peptide Recruitment Assay (LanthaScreen TR-FRET). In kind it is biochemical. To be noted: TR-FRET coactivator recruitment, THR beta-LBD 0.5 nM; for EC50: read-out: THRβ EC50. Here is the method: (§1) A time-resolved FRET (TR-FRET) assay was used to test representative compounds of the application.
(§2) THR-β Coactivator Peptide Recruitment Assay were conducted by using Invitrogen's LanthaScreen™ TR-FRET Thyroid Receptor beta Assay Kit (Catalog no. PV4686). Binding of an agonist to the nuclear receptor causes a subsequent binding of a coactivator peptide, resulting in fluorescence energy transfer from the labelled nuclear receptor to the proximal coactivator peptide, which reflects the binding affinity of the agonist and the nuclear receptor. The assay was conducted by following the manufacturer's instructions. Briefly, THR beta-LBD (the final concentration is 0.5 nM) was added to the 384-well assay plate containing test compounds, followed by addition of Fluorescein-SRC2-2 coactivator peptide and terbium (Tb)-labeled anti-GST antibody. The final concentration of THR beta-LBD, Fluorescein-SRC2-2 coactivator peptide and terbium (Tb)-labeled anti-GST antibody is 0.5 nM, 0.1 nM and 2 nM, respectively. After a gentle mix and incubation at room temperature for 2 h, the signal was read on the EnVision Multilabel Plate Reader at wavelengths of 520 nm and 495 nm. TR-FRET ratio was calculated by dividing the emission signal at 520 nm and the emission signal at 495 nm, and then was plotted against a sigmoidal dose response curve (four parameters, GraphPad™ Prism 8) to determine the EC50 value.
For orientation: Time-resolved FRET reads energy transfer from a long-lived donor to a nearby acceptor.

For another experiment, the target named is T2, THR alpha-LBD (Homo sapiens, UniProt P10827).
T2 construct: except that THR alpha-LBD of a final concentration 0.25 nM was used; purchased Invitrogen PV4687
Kind of experiment: THR-α Coactivator Peptide Recruitment Assay (LanthaScreen TR-FRET). The class given is biochemical. To be noted: TR-FRET coactivator recruitment, THR alpha-LBD 0.25 nM; for EC50: read-out: THRα EC50. How it is done:
as §1, §2
THR-α Coactivator Peptide Recruitment Assay were conducted by using Invitrogen's LanthaScreen™ TR-FRET Thyroid Receptor alpha Assay Kit (Catalog no. PV4687), following the same method described above except that THR alpha-LBD of a final concentration 0.25 nM was used.

T2 sequence (P10827 163-410 isoform P10827-2 limits assumed, other chains not shown): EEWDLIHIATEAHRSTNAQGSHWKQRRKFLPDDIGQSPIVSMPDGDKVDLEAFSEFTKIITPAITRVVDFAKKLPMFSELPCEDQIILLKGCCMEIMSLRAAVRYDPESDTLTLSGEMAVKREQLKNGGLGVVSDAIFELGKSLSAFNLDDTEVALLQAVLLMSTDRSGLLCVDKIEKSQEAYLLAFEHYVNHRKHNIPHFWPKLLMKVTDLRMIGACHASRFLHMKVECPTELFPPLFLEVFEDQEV

Usually EC50 stands for the concentration giving half of the maximal effect. `O=c1[nH]c(=O)n(-c2cc(Cl)c(Oc3ccc(O)c(S(=O)(=O)N[C@@H]4CCOC4)c3)c(Cl)c2)nc1C(F)F` [Compound 30, (R)-5-(2,6-dichloro-4-(6-(difluoromethyl)-3,5-dioxo-4,5-dihydro-1,2,4-triazin-2(3H)-yl)phenoxy)-2-hydroxy-N-(tetrahydrofuran-3-yl)benzenesulfonamide]: at THR beta-LBD, the “THRβ Emax” value is “A (90~110)” and the concentration for a half-maximal effect (EC50) is < 2 nM. On THR alpha-LBD, the “THRα Emax” value is listed as “A (85~110)” and the EC50 was < 2 nM.

`O=c1[nH]c(=O)n(-c2cc(Cl)c(Oc3ccc(O)c(S(=O)(=O)N4CCNCC4)c3)c(Cl)c2)nc1C(F)F` [Compound 31, 2-(3,5-dichloro-4-(4-hydroxy-3-(piperazin-1-ylsulfonyl)phenoxy)phenyl)-6-(difluoromethyl)-1,2,4-triazine-3,5(2H,4H)-dione]: on THR beta-LBD, the “THRβ Emax” value is on record as “C (<75)” and the EC50 fell in the range of 2 to 20 nM. At THR alpha-LBD, the “THRα Emax” value is recorded as “B (40~85)” and the EC50 was 2 to 200 nM.

With `O=C(C1CC1)N1CCN(S(=O)(=O)c2cc(Oc3c(Cl)cc(-n4nc(C(F)F)c(=O)[nH]c4=O)cc3Cl)ccc2O)CC1` [Compound 32, 2-(3,5-dichloro-4-(3-((4-(cyclopropanecarbonyl)piperazin-1-yl)sulfonyl)-4-hydroxyphenoxy)phenyl)-6-(difluoromethyl)-1,2,4-triazine-3,5(2H,4H)-dione], at THR beta-LBD, the “THRβ Emax” value is on record as “C (<75)” and the EC50 fell in the range of 2 to 20 nM. On THR alpha-LBD, the “THRα Emax” value is recorded as “C (<40)” and the EC50 lay within 2 to 200 nM.

For the molecule `CN1CCN(S(=O)(=O)c2cc(Oc3c(Cl)cc(-n4nc(C(F)F)c(=O)[nH]c4=O)cc3Cl)ccc2O)CC1=O` [Compound 33, 2-(3,5-dichloro-4-(4-hydroxy-3-((4-methyl-3-oxopiperazin-1-yl)sulfonyl)phenoxy)phenyl)-6-(difluoromethyl)-1,2,4-triazine-3,5(2H,4H)-dione], on THR beta-LBD, the “THRβ Emax” value is “C (<75)” and the concentration giving a half-maximal response (EC50) is < 2 nM. Further, on THR alpha-LBD, the “THRα Emax” value is reported as “B (40~85)” and the 50% effective concentration (EC50) lay in the range of 2 to 200 nM.

For `CO[C@H]1C[C@H](NS(=O)(=O)c2cc(Oc3c(Cl)cc(-n4nc(C(F)F)c(=O)[nH]c4=O)cc3Cl)ccc2O)C1` [Compound 36, 5-(2,6-dichloro-4-(6-(difluoromethyl)-3,5-dioxo-4,5-dihydro-1,2,4-triazin-2(3H)-yl)phenoxy)-2-hydroxy-N-((1r,3r)-3-methoxycyclobutyl)benzenesulfonamide], on THR beta-LBD, the “THRβ Emax” value is on record as “B (75~90)” and the EC50 was in the range of 2 to 20 nM. Also, on THR alpha-LBD, the “THRα Emax” value was “B (40~85)” and the EC50 lay within 2 to 200 nM.

Take `CO[C@H]1C[C@@H](NS(=O)(=O)c2cc(Oc3c(Cl)cc(-n4nc(C(F)F)c(=O)[nH]c4=O)cc3Cl)ccc2O)C1` [Compound 37, 5-(2,6-dichloro-4-(6-(difluoromethyl)-3,5-dioxo-4,5-dihydro-1,2,4-triazin-2(3H)-yl)phenoxy)-2-hydroxy-N-((1s,3s)-3-methoxycyclobutyl)benzenesulfonamide]: on THR beta-LBD, the “THRβ Emax” value was “B (75~90)” and the EC50 fell in the range of 2 to 20 nM. Also, on THR alpha-LBD, the “THRα Emax” value is listed as “A (85~110)” and the concentration giving a half-maximal response (EC50) was 2 to 200 nM.

Turning to `O=C(N1CCC1)C1(NS(=O)(=O)c2cc(Oc3c(Cl)cc(-n4nc(C(F)F)c(=O)[nH]c4=O)cc3Cl)ccc2O)CC1` [Compound 38, N-(1-(azetidine-1-carbonyl)cyclopropyl)-5-(2,6-dichloro-4-(6-(difluoromethyl)-3,5-dioxo-4,5-dihydro-1,2,4-triazin-2(3H)-yl)phenoxy)-2-hydroxybenzenesulfonamide], on THR beta-LBD, the “THRβ Emax” value is “B (75~90)” and the EC50 is 2 to 20 nM. At THR alpha-LBD, the “THRα Emax” value is “A (85~110)” and the concentration giving a half-maximal response (EC50) was 2 to 200 nM.

For `CS(=O)(=O)[C@H]1CCN(S(=O)(=O)c2cc(Oc3c(Cl)cc(-n4nc(C(F)F)c(=O)[nH]c4=O)cc3Cl)ccc2O)C1` [Compound 39, (S)-2-(3,5-dichloro-4-(4-hydroxy-3-((3-(methylsulfonyl)pyrrolidin-1-yl)sulfonyl)phenoxy)phenyl)-6-(difluoromethyl)-1,2,4-triazine-3,5(2H,4H)-dione], on THR beta-LBD, the “THRβ Emax” value is “C (<75)” and the EC50 is < 2 nM. Moreover, on THR alpha-LBD, the “THRα Emax” value is reported as “B (40~85)” and the EC50 fell in the range of 2 to 200 nM.

For `O=c1[nH]c(=O)n(-c2cc(Cl)c(Oc3ccc(O)c(S(=O)(=O)N4CC(O)C4)c3)c(Cl)c2)nc1C(F)F` [Compound 40, 2-[3,5-dichloro-4-[4-hydroxy-3-(3-hydroxyazetidin-1-yl)sulfonyl-phenoxy]phenyl]-6-(difluoromethyl)-1,2,4-triazine-3,5-dione], on THR beta-LBD, the “THRβ Emax” value is “B (75~90)” and the EC50 is < 2 nM. For the same molecule, on THR alpha-LBD, the “THRα Emax” value is given as “A (85~110)” and the 50% effective concentration (EC50) fell in the range of 2 to 200 nM.

As to `C[C@@H](CO)NS(=O)(=O)c1cc(Oc2c(Cl)cc(-n3nc(C(F)F)c(=O)[nH]c3=O)cc2Cl)ccc1O` [Compound 41, (S)-5-(2,6-dichloro-4-(6-(difluoromethyl)-3,5-dioxo-4,5-dihydro-1,2,4-triazin-2(3H)-yl)phenoxy)-2-hydroxy-N-(1-hydroxypropan-2-yl)benzenesulfonamide], at THR beta-LBD, the “THRβ Emax” value was “B (75~90)” and the EC50 was < 2 nM. Besides, on THR alpha-LBD, the “THRα Emax” value is given as “A (85~110)” and the EC50 lay in the range of 2 to 200 nM.

On to `O=c1[nH]c(=O)n(-c2cc(Cl)c(Oc3ccc(O)c(S(=O)(=O)NC[C@H]4C[C@H](O)C4)c3)c(Cl)c2)nc1C(F)F` [Compound 43, 5-(2,6-dichloro-4-(6-(difluoromethyl)-3,5-dioxo-4,5-dihydro-1,2,4-triazin-2(3H)-yl)phenoxy)-2-hydroxy-N-(((1r,3r)-3-hydroxycyclobutyl)methyl)benzenesulfonamide], for which, on THR beta-LBD, the “THRβ Emax” value was “A (90~110)” and the EC50 is 2 to 20 nM. Moreover, at THR alpha-LBD, the “THRα Emax” value is “A (85~110)” and the EC50 was in the range of 2 to 200 nM.

`O=c1[nH]c(=O)n(-c2cc(Cl)c(Oc3ccc(O)c(S(=O)(=O)NC[C@H]4C[C@@H](O)C4)c3)c(Cl)c2)nc1C(F)F` [Compound 44, 5-(2,6-dichloro-4-(6-(difluoromethyl)-3,5-dioxo-4,5-dihydro-1,2,4-triazin-2(3H)-yl)phenoxy)-2-hydroxy-N-(((1s,3s)-3-hydroxycyclobutyl)methyl)benzenesulfonamide]: at THR beta-LBD, the “THRβ Emax” value is on record as “B (75~90)” and the 50% effective concentration (EC50) fell in the range of 2 to 20 nM. Besides, on THR alpha-LBD, the “THRα Emax” value is on record as “A (85~110)” and the EC50 was 2 to 200 nM.

Take `C[C@H](CO)NS(=O)(=O)c1cc(Oc2c(Cl)cc(-n3nc(C(F)F)c(=O)[nH]c3=O)cc2Cl)ccc1O` [Compound 45, (R)-5-(2,6-dichloro-4-(6-(difluoromethyl)-3,5-dioxo-4,5-dihydro-1,2,4-triazin-2(3H)-yl)phenoxy)-2-hydroxy-N-(1-hydroxypropan-2-yl)benzenesulfonamide]: on THR beta-LBD, the “THRβ Emax” value was “B (75~90)” and the concentration giving a half-maximal response (EC50) is < 2 nM. At THR alpha-LBD, the “THRα Emax” value was “A (85~110)” and the EC50 was 2 to 200 nM.
